Assay [1] has as its target T1, Cathepsin K (Homo sapiens, UniProt P43235).
T1 construct: purchased Biovision K150-100
T1 sequence (P43235 115-329): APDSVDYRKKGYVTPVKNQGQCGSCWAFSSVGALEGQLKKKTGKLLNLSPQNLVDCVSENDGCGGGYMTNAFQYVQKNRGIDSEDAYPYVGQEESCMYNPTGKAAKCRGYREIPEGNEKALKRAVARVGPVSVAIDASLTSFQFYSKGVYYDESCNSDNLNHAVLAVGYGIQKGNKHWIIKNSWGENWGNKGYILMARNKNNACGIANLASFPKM
In words: Preliminary screening of Cathepsin K (Cathepsin K Inhibitor Screening Kit K150-100, Biovision). It is filed as biochemical. The following applies: relative inhibition rate vs 10 μM FF-FMK control. In short, it runs like this: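 Percent inhibition was derived from kinetic slopes (ΔRFU/Δt, ex 400/em 505 nm, 120 min at 37 °C), normalized between an uninhibited enzyme control and 10 μM FF-FMK. Compounds were added from 100 μM or 10 μM working solutions (10% DMSO) to Cathepsin K and preincubated 15 min at 25 °C before substrate.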

Assay [2] addresses T2, Cathepsin B (Homo sapiens, UniProt P07858).
T2 construct: purchased Biovision K147-100
In words: IC50 determination against Cathepsin B (Biovision kit K147-100). The following applies: for Selectiviy vs Cathepsin K (fold): selectivity for Cathepsin B over Cathepsin K; for Selectiviy vs Cathepsin L (fold): selectivity for Cathepsin B over Cathepsin L; for Selectiviy vs Cathepsin S (fold): selectivity for Cathepsin B over Cathepsin S; for selectivity for Cathepsin B: statement in words, versus Cathepsin K, L, S. It is filed as biochemical. The procedure:
2. Method for determining IC50 of compounds against cathepsin:
IC50 of compounds against Cathepsin B was determined by using Cathepsin B Inhibitor Screening Kit (Product No. K147-100) from Biovision Company;
2.1.1.2 Preparation of Cathepsin B solution: Cathepsin B enzyme (23 μl) and Cathepsin B reagent (46 μl) were added to Cathepsin B buffer (2231 μl), and mixed well, to prepare Cathepsin B enzyme solution with a volume of 2.3 ml, which was placed on ice for further use.
2.1.2 Preparation of compound solutions: 30 mM and 10 mM compound stock solutions, and control compounds were gradiently diluted in DMSO at a ratio of 1:3, wherein the maximum dilution fold was 19683; the gradiently diluted compound solution (3 μl) was added to Cathepsin K, B, L, and S buffer (27 μl), respectively, and mixed well, wherein the control compounds (FF-FMK, F-F-FMK, FF-FMK and Z-FF-FMK) were at the concentrations of 66.67, 22.22, 7.41, 2.47, 0.82, 0.27, 0.091, 0.03, 0.01, 0.0034 and 0 μM, respectively, the test compounds were at the concentrations of 1000, 333.3, 111.1, 37, 12.3, 4.1, 1.4, 0.46, 0.15, 0.05 and 0 μM, respectively, and the final concentration of DMSO was 10%.
2.1.3.2 Cathepsin B: Cathepsin B substrate (90 μl) was added to Cathepsin B buffer (1710 μl), and mixed well, to prepare Cathepsin B substrate solution with a volume of 1.8 ml, which was placed on ice for further use.
Method for screening cathepsin inhibitors: the cathepsin solution (prepared in Item 2.1.1) was added to a 384-well plate (ProxiPlate-384 Plus, Perkinelmer) at 10 μl/well, and centrifuged at 1000 rpm for Imin; the compound solution (prepared in Item 2.1.2) was then added at 2 μl/well, and every concentration was repeated in two wells; the final concentrations of the test compounds were 100, 33.3, 11.1, 3.7, 1.23, 0.41, 0.14, 0.046, 0.015, 0.005 and 0 μM, respectively, wherein the final concentration of DMSO was 1%; after centrifugation at 1000 rpm for 1 min, the plate was put in a 25° C. incubator for 15 min; the cathepsin substrate solution was then added at 8 µl/well, and centrifuged at 1000 rpm for 1 min; and finally, the fluorescence signal was read in Enspire, wherein the exciting light was at a wavelength of 400 nm, the emitting light was at a wavelength of 505 nm, and continuous reading was performed at 37° C. for 120 min.
Data analysis: the slope (S) for all the samples was calculated by ΔRFU(RFU2−RFU1) and time ΔT(T2−T1), including negative control (Enzyme Control, EC) and positive control (Inhibitor Control, IC: 10 μM (FF-FMK, F-F-FMK, FF-FMK and Z-FF-FMK), and the calculation formula was as followed: Relative inhibition rate %=(SEC−SS)/(SEC−SIC)*100. The IC50 for each compound was obtained by means of fitting by software GraphPad Prism 5.0.

The mark [3] stands for this setting: 1 μM compound, replicate 1, read-out: Inhibition % (1 μM) replicate 1.
Where [4] appears, read: 1 μM compound, replicate 2, read-out: Inhibition % (1 μM) replicate 2.
[5] abbreviates: 10 μM compound, replicate 1, read-out: Inhibition % (10 μM) replicate 1.
[6] abbreviates: 10 μM compound, replicate 2, read-out: Inhibition % (10 μM) replicate 2.
[7] abbreviates: CTSB, Exp-1, read-out: IC50 (nM) Exp-1.
Setting [8] is: CTSB, Exp-2, read-out: IC50 (nM) Exp-2.
The mark [9] stands for this setting: CTSB, average of Exp-1 and Exp-2, read-out: Ave of IC50.
Where [10] appears, read: Table 3, average ± STDEV, read-out: Cathepsin B IC50.

Read-outs that look alike come from different tables or passages of the source.

The values that follow come from patent US10647690B2, “2,3-epoxy succinyl derivative, preparation method and use thereof” (Institute of Pharmacology and Toxicology Academy of …, priority 2016, dated 2020).

Consider `CCCCCCNC(=O)[C@H](CCSC)NC(=O)[C@H]1O[C@@H]1C(=O)OCC` [Compound 5, (2s, 3s)-2-ethoxycarbonyl-3-[2-[(s)-4-methylthio-1-carbonyl-1-(hexylamino)butane]formylamino]epoxysuccinic acid], for which the inhibition at 1 µM in assay [1] (setting [3]) was 90.9%; in assay [1] (setting [4]) it was 89.5%. The inhibition at 10 µM in assay [1] (setting [5]) was 91.3%; in assay [1] (setting [6]), 95.7%. Moreover, the IC50 in assay [2] (setting [7]) was 7.19 nM; in assay [2] (setting [8]), 9.33 nM; in assay [2] (setting [9]) it was 8.27 nM; in assay [2] (setting [10]) it was 8.27 ± 1.51 nM. Moreover, the “Selectiviy vs Cathepsin K (fold)” value in assay [2] is on record as 181 fold. In assay [2], the “Selectiviy vs Cathepsin L (fold)” value is listed as 278 fold. In addition, in assay [2], the “Selectiviy vs Cathepsin S (fold)” value was determined as 497 fold. The “selectivity for Cathepsin B” value in assay [2] is “strong selectivity for Cathepsin B”.
With `CCOC(=O)[C@H]1O[C@@H]1C(=O)N[C@@H](CCSC)C(=O)NCCCc1ccccc1` [Compound 8, (2s, 3s)-2-ethoxycarbonyl-3-[2-[(s)-4-methylthio-1-carbonyl-1-(3-phenylpropylamino)butane]formylamino]epoxysuccinic acid], the inhibition at 1 µM turned out to be 80.5% in assay [1] (setting [3]) and 78.9% in assay [1] (setting [4]). Moreover, the inhibition at 10 µM came to 96.9% in assay [1] (setting [5]) and 94.1% in assay [1] (setting [6]). In addition, the IC50 in assay [2] (setting [7]) came out at 17.6 nM; in assay [2] (setting [8]), 20.7 nM; in assay [2] (setting [9]), 19.2 nM; in assay [2] (setting [10]), 19.2 ± 2.26 nM. Further, the “Selectiviy vs Cathepsin K (fold)” value in assay [2] is reported as 116 fold. Further, the “Selectiviy vs Cathepsin L (fold)” value in assay [2] amounted to 210 fold. In assay [2], the “Selectiviy vs Cathepsin S (fold)” value was determined as 524 fold. For the same compound, the “selectivity for Cathepsin B” value in assay [2] is recorded as “strong selectivity for Cathepsin B”.
`CCOC(=O)[C@H]1O[C@@H]1C(=O)N[C@@H](CCSC)C(=O)N1CCC(c2ccccc2)CC1` [Compound 13, (2s, 3s)-2-ethoxycarbonyl-3-[2-[(s)-4-methylthio-1-carbonyl-1-(phenylpiperidinyl)butane]formylamino]epoxysuccinic acid]: the inhibition at 1 µM came to 99.7% in assay [1] (setting [3]) and 98.9% in assay [1] (setting [4]). Besides, the inhibition at 10 µM was 108% in assay [1] (setting [5]) and 106% in assay [1] (setting [6]). Moreover, the IC50 was found to be 3.76 nM in assay [2] (setting [7]), 4.64 nM in assay [2] (setting [8]), 4.2 nM in assay [2] (setting [9]) and 4.2 ± 0.63 nM in assay [2] (setting [10]). Besides, in assay [2], the “Selectiviy vs Cathepsin K (fold)” value amounted to 40 fold. Also, in assay [2], the “Selectiviy vs Cathepsin L (fold)” value amounted to 1563 fold. In assay [2], the “Selectiviy vs Cathepsin S (fold)” value stood at 357 fold. Besides, the “selectivity for Cathepsin B” value in assay [2] is on record as “strong selectivity for Cathepsin B”.
`CCOC(=O)[C@H]1O[C@@H]1C(=O)N[C@@H](CCSC)C(=O)NCCc1cccc(F)c1` [Compound 34, (2s, 3s)-2-ethoxycarbonyl-3-[2-[(s)-4-methylthio-1-carbonyl-1-(3-fluorophenylethylamino)butane]formylamino]epoxysuccinic acid]: the figures for the inhibition at 1 µM in assay [1] (setting [3]) and in assay [1] (setting [4]) were 88.6% and 90.8%, respectively. Also, the inhibition at 10 µM in assay [1] (setting [5]) worked out at 94.4%; in assay [1] (setting [6]) it was 95.7%. For the same compound, the IC50 was 22.3 nM in assay [2] (setting [7]), 25.9 nM in assay [2] (setting [8]), 24.1 nM in assay [2] (setting [9]) and 24.1 ± 2.59 nM in assay [2] (setting [10]). In addition, the “Selectiviy vs Cathepsin K (fold)” value in assay [2] was found to be 21 fold. In assay [2], the “Selectiviy vs Cathepsin S (fold)” value stood at 167 fold. In assay [2], the “selectivity for Cathepsin B” value was “strong selectivity for Cathepsin B”.
In the case of `CCOC(=O)[C@H]1O[C@@H]1C(=O)N[C@@H](CCSC)C(=O)NC(CC)CC` [Compound 39, (2s, 3s)-2-ethoxycarbonyl-3-[2-[(s)-4-methylthio-1-carbonyl-1-(1-ethylpropylamino)butane]formylamino]epoxysuccinic acid], the inhibition at 1 µM was 81.5% in assay [1] (setting [3]) and 85.2% in assay [1] (setting [4]). The inhibition at 10 µM in assay [1] (setting [5]) came out at 97.3%; in assay [1] (setting [6]), 99.5%. Further, the IC50 was 68.5 nM in assay [2] (setting [7]), 80 nM in assay [2] (setting [8]), 74.3 nM in assay [2] (setting [9]) and 74.3 ± 8.18 nM in assay [2] (setting [10]). The “Selectiviy vs Cathepsin K (fold)” value in assay [2] was determined as 22 fold. Moreover, the “Selectiviy vs Cathepsin L (fold)” value in assay [2] was 129 fold. Also, the “Selectiviy vs Cathepsin S (fold)” value in assay [2] was found to be 193 fold. Also, in assay [2], the “selectivity for Cathepsin B” value is “strong selectivity for Cathepsin B”.
For `CCOC(=O)[C@H]1O[C@@H]1C(=O)N[C@@H](CCSC)C(=O)NCCCCc1ccccc1` [Compound 40, (2s, 3s)-2-ethoxycarbonyl-3-[2-[(s)-4-methylthio-1-carbonyl-1-(4-phenylbutylamino)butane]formylamino]epoxysuccinic acid], the inhibition at 1 µM in assay [1] (setting [3]) amounted to 85.5%; in assay [1] (setting [4]), 89.1%. Also, the inhibition at 10 µM is 91.1% in assay [1] (setting [5]) and 94.9% in assay [1] (setting [6]). The IC50 was found to be 20.3 nM in assay [2] (setting [7]), 27.1 nM in assay [2] (setting [8]), 23.7 nM in assay [2] (setting [9]) and 23.7 ± 4.78 nM in assay [2] (setting [10]). For the same compound, the “Selectiviy vs Cathepsin K (fold)” value in assay [2] came to 28 fold. In addition, in assay [2], the “Selectiviy vs Cathepsin L (fold)” value was determined as 185 fold. Besides, the “Selectiviy vs Cathepsin S (fold)” value in assay [2] came out at 149 fold. Further, in assay [2], the “selectivity for Cathepsin B” value is reported as “strong selectivity for Cathepsin B”.
For `CCOC(=O)[C@H]1O[C@@H]1C(=O)N[C@@H](CC(C)C)C(=O)NCCC(C)C` [zxy-37, E64d, reference compound], the “Inhibition % (1 μM) replicate 1” value in assay [1] (1 μM compound, replicate 1) came to 85.73%. In addition, the “Inhibition % (1 μM) replicate 2” value in assay [1] (1 μM compound, replicate 2) amounted to 87.75%. Moreover, the “Inhibition % (10 μM) replicate 1” value in assay [1] (10 μM compound, replicate 1) is on record as 90.96%. For the same compound, in assay [1] (10 μM compound, replicate 2), the “Inhibition % (10 μM) replicate 2” value was found to be 98.34%. The IC50 in assay [2] (setting [7]) came out at 10.6 nM; in assay [2] (setting [8]), 13.5 nM; in assay [2] (setting [9]) it was 12 nM; in assay [2] (setting [10]), 12 ± 2.03 nM. Moreover, the “Selectiviy vs Cathepsin K (fold)” value in assay [2] is given as 39 fold. In addition, the “Selectiviy vs Cathepsin L (fold)” value in assay [2] turned out to be 15 fold. In addition, in assay [2], the “Selectiviy vs Cathepsin S (fold)” value was determined as 55 fold.

For orientation: inhibition means the relative decrease from the control value, in per cent. As a reminder, the IC50 is the concentration needed to halve the response being measured.
